According to PubChem BioAssay (NCI):
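Dose response: 5 concentrations. Exposure: 48 h. Format: 96-well plates. Endpoint: linear interpolation; highest concentration if not reached. TGI denotes the concentration required for complete inhibition of growth.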

How the values were obtained:
Test in all cases: NCI-60 cell line screen, 48 h
RXF 393 renal = system: RXF 393 renal
CAKI-1 renal = system: CAKI-1 renal
SNB-19 CNS = system: SNB-19 CNS
MOLT-4 leukemia = system: MOLT-4 leukemia
UACC-257 melanoma = system: UACC-257 melanoma
RPMI-8226 leukemia = system: RPMI-8226 leukemia
LOX IMVI melanoma = system: LOX IMVI melanoma
SF-295 CNS = system: SF-295 CNS
MALME-3M melanoma = system: MALME-3M melanoma
SK-OV-3 ovarian = system: SK-OV-3 ovarian
IGROV1 ovarian = system: IGROV1 ovarian
NCI-H460 lung = system: NCI-H460 lung
SF-539 CNS = system: SF-539 CNS
M14 melanoma = system: M14 melanoma
NCI-H226 lung = system: NCI-H226 lung
NCI-H23 lung = system: NCI-H23 lung
TK-10 renal = system: TK-10 renal
SK-MEL-28 melanoma = system: SK-MEL-28 melanoma
786-0 renal = system: 786-0 renal
A498 renal = system: A498 renal
DU-145 prostate = system: DU-145 prostate
HCC-2998 colon = system: HCC-2998 colon
SW-620 colon = system: SW-620 colon
HT29 colon = system: HT29 colon
MDA-N = system: MDA-N
SN12C renal = system: SN12C renal
SK-MEL-2 melanoma = system: SK-MEL-2 melanoma
EKVX NSCLC = system: EKVX NSCLC
SF-268 CNS = system: SF-268 CNS
OVCAR-8 ovarian = system: OVCAR-8 ovarian
OVCAR-5 ovarian = system: OVCAR-5 ovarian
U251 CNS = system: U251 CNS
SK-MEL-5 melanoma = system: SK-MEL-5 melanoma
KM12 colon = system: KM12 colon
OVCAR-3 ovarian = system: OVCAR-3 ovarian
NCI-H522 lung = system: NCI-H522 lung
HCT-116 colon = system: HCT-116 colon
HOP-62 NSCLC = system: HOP-62 NSCLC
MDA-MB-231 breast = system: MDA-MB-231 breast
T-47D breast = system: T-47D breast
K-562 leukemia = system: K-562 leukemia
UO-31 renal = system: UO-31 renal
MCF7 breast = system: MCF7 breast
ACHN renal = system: ACHN renal
COLO 205 colon = system: COLO 205 colon
HS 578T breast = system: HS 578T breast
SR leukemia = system: SR leukemia
HL-60(TB) leukemia = system: HL-60(TB) leukemia
HCT-15 colon = system: HCT-15 colon
CCRF-CEM leukemia = system: CCRF-CEM leukemia
OVCAR-4 ovarian = system: OVCAR-4 ovarian
MDA-MB-435 = system: MDA-MB-435
BT-549 breast = system: BT-549 breast
A549 NSCLC = system: A549 NSCLC
PC-3 prostate = system: PC-3 prostate
HOP-92 NSCLC = system: HOP-92 NSCLC
SNB-75 CNS = system: SNB-75 CNS
NCI/ADR-RES ovarian = system: NCI/ADR-RES ovarian
UACC-62 melanoma = system: UACC-62 melanoma

Measured: TGI

CC(C)=CCN1CC(C)C(=O)Nc2ccccc21 (stereo not given)
not listed: SNB-75 CNS | NCI/ADR-RES ovarian | UACC-62 melanoma
> 100 µM: all other assays above

O=[N+]([O-])c1ccc(-c2nc3ccc(Cl)cc3[nH]2)cc1
not listed: RXF 393 renal | A498 renal | HCC-2998 colon | SK-MEL-2 melanoma | OVCAR-5 ovarian | U251 CNS | KM12 colon | K-562 leukemia | HL-60(TB) leukemia | CCRF-CEM leukemia
> 100 µM: all other assays above
